Assay results from patent US20240285670A1, “THERAPEUTIC TREATMENT OF TUMORS BY BLOCKING THE HEME SYNTHESIS-EXPORT AXIS” (Università degli Studi di Torino, priority 2021, published 2024).

Tested on: Caco2 cells
Test: Flow cytometric analysis of apoptosis in Caco2 cells
Assay type: cell-based, human
Settings: FLVCR1a-silenced vs scramble shRNA, synchronized Caco2 cells
Excerpt: (A) Proliferation of Caco2 cells assessed by crystal violet staining at the indicated days; bar=1000 μm. […] Staining quantification is reported in the bar graph as percentage of crystal violet stained area. Data represent mean±SEM, n=4. For statistical analyses, a two-way analysis of variance was used, followed by the Bonferroni correction for multiple group comparisons; *=p<0.05, ***=p<0.001. (B) Caco2 cells viability the day of plating (day 0) and three days after plaiting (day 3). The measure is considered a readout of cell proliferation. […] Data represent mean±SEM, n=3 wells. For statistical analyses, a two-way analysis of variance was used, followed by the Bonferroni correction for multiple group comparisons; *=p<0.05, **=p<0.01. (C, D, E) Representative flow cytometric analyses of apoptosis in synchronized Caco2 (C), SKCO1 (D) and C80 (E) cells. […] Data represent mean±SEM, n=4 wells pooled from two independent experiments. For statistical analyses, an unpaired Student's t-test was used; *=p<0.05, **=p<0.01. […]
Stained cells were analyzed using a FACSCanto II cytofluorimeter and processed with BD FACSDIVA Software v8.1 (BD Biosciences, Milan, IT; http://www.bdbiosciences.com/instruments/software/facsdiva/index.jsp/ RRID:SCR_001456), acquiring at least 10,000 events per sample or 25,000 cells per sample for cell cycle experiments.

FLVCR1a shRNA: shRNA specifically down-regulating FLVCR1a without targeting FLVCR1b; pLKO.1 lentiviral clone TRCN0000059599, antisense SEQ ID No.: 2 (antisense TTGCTAATGATGCTGTACTGG; sense CCAGTACAGCATCATTAGCAA)
basal apoptosis: higher extent of basal apoptosis
